From US10852272B2, “Devices and methods using pore size modulation for detecting analytes in a fluid sample” (The Regents of the University of California, priority 2014, dated 2020)

Tests used:
[1] = Dissolution (decrosslinking) kinetics of labile crosslinkers under the dissolution treatment (applied stimulus); type: physicochemical; conditions: under the dissolution treatment listed per crosslinker (periodic acid, reducing agent, base or acid)
From the text: Certain properties of labile crosslinkers are described in the table below.

[2] = Half-life of DK as a function of pH; type: physicochemical; conditions: buffer
Description: The half-life of DK was 0.03 days at pH 5 and 6 days at pH 7.4 (at 35° C.). To qualitatively confirm decrosslinking functionality, four solutions of tris glycine were titrated to pH values of 8.3, 7.1, 2.6 and 0.07, with the addition of hydrochloric acid. A piece of DK crosslinked PAG was placed into each of the separate solutions to assess dissolution at room temperature. Gels were periodically removed and photographs were taken to qualitatively assess how much gel remained. […] The gels soaking in 8.3 pH and 7.1 pH were not visually affected even after overnight incubation. […] Experiments were performed to study composite crosslinked PAG.

Row | Structure (SMILES) | Dissolution Kinetics [1] | half-life ([2]; pH 5, 35° C.) | half-life ([2]; pH 7.4, 35° C.)
1 | C=CC(=O)NCCSSCCNC(=O)C=C [BAC, N,N′-bis(acryloyl)cystamine] | Minutes | – | –
2 | C=CCNC(=O)C(O)C(O)C(=O)NCC=C (centres unmarked) [DATD, N—N′-diallyltartardiamide] | Hours | – | –
3 | C=CC(=O)NC(O)C(O)NC(=O)C=C (centres unmarked) [DHEBA, N,N′-(1,2-dihydroxyethylene)bisacrylamide] | Hours | – | –
4 | C=CC(=O)NCCOC(C)(C)OCCNC(=O)C=C [DK, N-[2-[2-[2-(prop-2-enoylamino)ethoxy]propan-2-yloxy]ethyl]prop-2-enamide] | Minutes | 0.72 h | 144 h
5 | C=CC(=O)NCCOCCOC(C)(C)OCCOCCNC(=O)C=C [DOK, N,N′-(7,7-dimethyl-3,6,8,11-tetraoxatridecane-1,13-diyl)diacrylamide] | Minutes | – | –
6 | C=CC(=O)OCCOC(=O)C=C [EDA, ethylene glycol diacrylate] | Minutes | – | –
